Source: US20220018855A1, “RGMa Fragment Based Diagnostic Assay” (ABBVIE DEUTSCHLAND GMBH & CO. KG, priority 2014, published 2022)
“Also recorded” adds a separate entry of the source.

What was measured:
[1] = test system: progressive multiple sclerosis patients; experiment: Clinical evaluation (EDSS, maximum walking distance, walking speed) after repeated intrathecal TCA applications; type: in vivo, human; settings: for clinical benefit / functional recovery: not immediately responding patients
Method: Subjects. 25 MS patients (age: 50±1.64 [mean±SEM, years] were studied. The average MS duration was 14.02±1.71 [years]. The subjects included 14 women and 11 men. The subjects included 13 secondary progressive [8 women, 5 men] and 12 primary progressive [6 women, 6 men]). […] Design. TCA application was followed by a mandatory stay in bed for at least six hours in order to support and ease the diffusion of TCA in the CSF and the spinal cord. Lumbar puncture was performed with an atraumatic Sprotte needle. The preexisting immune system modulating drug therapy remained stable. Spasticity reducing therapy was not changed. Expanded Disability Status Score (EDSS) ratings, maximum walking distance, and walking speed assessments were performed at baseline and on each day after a 40 mg Triamcinolone acetonide (TCA) administration, dissolved in 10 ml saline, up to the fourth TCA application. Statistics. ANCOVA with repeated measures design were employed for this exploratory analysis of this pilot trial. Covariates were MS duration, MS types, sex and age as covariates. The post hoc analysis was done with the Tukey's multiple comparisons test against baseline. The statistical analysis was performed with GraphPad Prism 5 Software. […] Clinical evaluation was performed at baseline and on each day after a triamcinolone administration in 25 progressive multiple sclerosis patients. Before the TCA was administered to a patient, 1-2 ml aliquots of CSF were withdrawn. RGMa concentrations were determined before each triamcinolone application by western blot analysis with quantification. Dependent on the disease activity, the patients usually received 4-6 TCA applications.

RGMa = RGMa levels in cerebrospinal fluid by Western blot with densitometric quantification; type: in vivo, human
[2] = test system: progressive multiple sclerosis patients; experiment: Side effects during TCA therapy; type: in vivo, human; settings: all participants (25 MS patients)
Method: Design. TCA application was followed by a mandatory stay in bed for at least six hours in order to support and ease the diffusion of TCA in the CSF and the spinal cord. Lumbar puncture was performed with an atraumatic Sprotte needle. The preexisting immune system modulating drug therapy remained stable. Spasticity reducing therapy was not changed. Expanded Disability Status Score (EDSS) ratings, maximum walking distance, and walking speed assessments were performed at baseline and on each day after a 40 mg Triamcinolone acetonide (TCA) administration, dissolved in 10 ml saline, up to the fourth TCA application. […] Clinical evaluation was performed at baseline and on each day after a triamcinolone administration in 25 progressive multiple sclerosis patients. Before the TCA was administered to a patient, 1-2 ml aliquots of CSF were withdrawn. RGMa concentrations were determined before each triamcinolone application by western blot analysis with quantification. Dependent on the disease activity, the patients usually received 4-6 TCA applications.

MS patients = settings: cited from earlier work
[3] = treated MS patients, numerous TCA studies

Question: For `CC1(C)O[C@@H]2C[C@H]3[C@@H]4CCC5=CC(=O)C=C[C@]5(C)[C@@]4(F)[C@@H](O)C[C@]3(C)[C@]2(C(=O)CO)O1` [TCA, triamcinolone acetonide], which walking speed ([1]; 8 not immediately responding patients, F=0.021, ns, FIG. 4C) is on record?
Answer: no significant change; also recorded: no improved

Question: What about the EDSS scores ([1]; 8 not immediately responding patients, F=1, ns, FIG. 4A) of the same molecule?
Answer: no significant change; also recorded: no improved

Question: What about the maximum walking distances ([1]; 8 not immediately responding patients, F=1.52, ns, FIG. 4B) of the same molecule?
Answer: no significant change; also recorded: no improved

Question: What about the walking speed ([1]; 17 immediate responders (3 wheel chair bound excluded), F=3.42, p<0.01, FIG. 3C) of the same molecule?
Answer: improved

Question: What about the walking speed ([1]; 17 immediate responders (3 wheel chair bound excluded), F=3.42, p<0.01, FIG. 3C, listed as Triamcinolone Acetonide) of the same molecule?
Answer: went up

Question: And the walking speed ([1]; 17 immediate responders (3 wheel chair bound excluded), F=3.42, p<0.01, FIG. 3C, listed as triamcinolone)?
Answer: ameliorated

Question: And the maximum walking distances ([1]; 17 immediate responders (3 wheel chair bound excluded), F=3.64, p=0.01, FIG. 3B)?
Answer: improved

Question: And the maximum walking distances ([1]; 17 immediate responders (3 wheel chair bound excluded), F=3.64, p=0.01, FIG. 3B, listed as Triamcinolone Acetonide)?
Answer: increased

Question: And the maximum walking distances ([1]; 17 immediate responders (3 wheel chair bound excluded), F=3.64, p=0.01, FIG. 3B, listed as triamcinolone)?
Answer: ameliorated

Question: What about the EDSS scores ([1]; 17 immediate responders, 40 mg TCA intrathecal, repeated, F=8.55, p<0.009, FIG. 3A) of the same molecule?
Answer: improved

Question: And the EDSS scores ([1]; 17 immediate responders, 40 mg TCA intrathecal, repeated, F=8.55, p<0.009, FIG. 3A, listed as Triamcinolone Acetonide)?
Answer: went down

Question: And the EDSS scores ([1]; 17 immediate responders, 40 mg TCA intrathecal, repeated, F=8.55, p<0.009, FIG. 3A, listed as triamcinolone)?
Answer: improved

Question: What about the “patients reporting a delayed improvement within three weeks after the TCA applications” value ([1]; among the 8 not immediately responding patients) of the same molecule?
Answer: 6 patients

Question: What about the “clinical benefit / functional recovery” value [1] of the same molecule?
Answer: no functional recovery

Question: What about the “clinical benefit / functional recovery” value ([1]; listed as triamcinolone) of the same molecule?
Answer: no prompt clinical benefit

Question: What about the “patients improved following treatment” value ([1]; of 25 progressive MS patients) of the same molecule?
Answer: 17 patients

Question: And the “patients who did not immediately respond during the observation period” value ([1]; of 25 progressive MS patients)?
Answer: 8 patients

Question: And the “RGMa concentrations in CSF” value (RGMa; not immediately responding patients)?
Answer: no decrease

Question: What about the “RGMa 40 kDa form level in CSF” value (RGMa; not immediately responding patients, F=0.84, ns, FIG. 7A) of the same molecule?
Answer: No significant changes

Question: What about the “RGMa 30 kDa form level in CSF” value (RGMa; not immediately responding patients, F=2.98, ns, FIG. 7B) of the same molecule?
Answer: No significant changes

Question: What about the “RGMa levels in CSF (all investigated fragments)” value (shortened to “RGMa levels in CSF”) (RGMa; responders) of the same molecule?
Answer: decreased

Question: And the “RGMa 40 kDa form level in CSF” value (RGMa; responders, F=9.12, p<0.0001, FIG. 5A)?
Answer: decline

Question: What about the “RGMa 30 kDa form level in CSF” value (RGMa; responders, less pronounced than 40 kDa, F=3.82, p<0.05, FIG. 5B) of the same molecule?
Answer: decline

Question: What about the “RGMa levels in CSF” value (RGMa; responders, listed as Triamcinolone Acetonide) of the same molecule?
Answer: reduction

Question: What about the “RGMa levels in CSF” value (RGMa; responders, listed as triamcinolone) of the same molecule?
Answer: declined

Question: And the serious side effects [2]?
Answer: no serious side effects

Question: What about the “CSF synthesis of free radicals” value (MS patients; patients with a distinct immediate enhancement of upper and lower limb function) of the same molecule?
Answer: Reduced

Question: And the “EDSS (Expanded Disability Status Score)” value (MS patients; [3])?
Answer: decreased

Question: And the walking distance (MS patients; [3])?
Answer: increased

Question: And the walking speed (MS patients; [3])?
Answer: decreased
